Source: BindingDB's records for doi:10.1038/sj.mp.4000336 (University of Toronto, 1998)

target: 5-hydroxytryptamine receptor 2A (Rattus norvegicus, UniProt P14842)
Sequence (P14842 whole entry): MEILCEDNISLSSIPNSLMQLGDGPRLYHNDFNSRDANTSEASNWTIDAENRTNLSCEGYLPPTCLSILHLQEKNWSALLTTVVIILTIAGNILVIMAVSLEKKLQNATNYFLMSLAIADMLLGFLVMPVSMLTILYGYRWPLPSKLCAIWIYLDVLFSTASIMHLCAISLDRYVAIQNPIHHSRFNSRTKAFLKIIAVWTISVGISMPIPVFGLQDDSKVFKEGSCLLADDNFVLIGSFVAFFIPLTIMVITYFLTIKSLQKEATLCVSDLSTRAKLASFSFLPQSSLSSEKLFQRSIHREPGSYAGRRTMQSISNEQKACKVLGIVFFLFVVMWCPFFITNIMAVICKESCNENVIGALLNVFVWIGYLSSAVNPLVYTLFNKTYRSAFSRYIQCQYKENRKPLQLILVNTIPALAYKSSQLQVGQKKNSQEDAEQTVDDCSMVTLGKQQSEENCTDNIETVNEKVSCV

Ki [µM]	Compound
5.2	CCN1CCC[C@H]1CNC(=O)c1c(OC)ccc(Br)c1OC
4	CCN1CCC[C@H]1CNC(=O)c1c(O)c(Cl)cc(Cl)c1OC [3,5-Dichloro-N-(1-ethyl-pyrrolidin-2-ylmethyl)-2-hydroxy-6-methoxy-benzamide (raclopride)]
0.0013	O=C1C2CCCCC2C(=O)N1CCCCN1CCN(c2nsc3ccccc23)CC1 (stereo not drawn) [NSC_115368]
